Earlier results on 3 compounds are cited in patent US20110053874A1, “USE OF FLAVONOIDE COMPOUNDS FOR THE PROPHYLAXIS AND THERAPY OF ISCHAEMIC OR INFLAMMATORY HEART AND CARDIOVASCULAR DISEASES” (BOEHRINGER INGELHEIM INTERNATIONAL GMBH, priority 2008, published 2011).

For data set [1] the following is noted: in vivo.
For data set [2] the following is noted: human, oral.

As to `O=c1c(O)c(-c2ccc(O)c(O)c2)oc2cc(O)cc(O)c12` [Quercetin], the absorption entry in data set [1] is listed as “only absorbed to a small extent”.
As to `O=c1c(O[C@@H]2O[C@H](CO)[C@@H](O)[C@H](O)[C@H]2O)c(-c2ccc(O)cc2)oc2cc(O)cc(O)c12` [kaempferol glucoside, kaempferol-3-O-β-D-glucoside], the “form present in the plasma after being taken orally and absorbed through the intestine” value in data set [2] is listed as “almost completely in the form of their respective glucuronides”.
Take `O=c1c(O[C@@H]2O[C@H](CO)[C@@H](O)[C@H](O)[C@H]2O)c(-c2ccc(O)c(O)c2)oc2cc(O)cc(O)c12` [quercetin glucoside, quercetin-3-O-β-D-glucoside]: in data set [2], the “form present in the plasma after being taken orally and absorbed through the intestine” value is given as “almost completely in the form of their respective glucuronides”.
